Results published in the kinase profiling compilation of Christmann-Franck et al. (2016).

What was measured:
Test in all cases: radiometric filter-binding kinase assay
MST4 (human) = MST4 (human) (UniProt Q9P289); details: ATP 20 µM
RPS6KA3 KD1 KD2 (human) = RPS6KA3 KD1 KD2 (human) (UniProt P51812); details: ATP 100 µM
PIM3 (human) = PIM3 (human) (UniProt Q86V86); details: ATP 20 µM
MAPK8 (human) = MAPK8 (human) (UniProt P45983); details: ATP 20 µM
EPHA2 (human) = EPHA2 (human) (UniProt P29317); details: ATP 50 µM
BTK (human) = BTK (human) (UniProt Q06187); details: ATP 50 µM
MKNK1 (human) = MKNK1 (human) (UniProt Q9BUB5); details: ATP 50 µM
MKNK1 (human), sequence (Q9BUB5 whole entry, looked up): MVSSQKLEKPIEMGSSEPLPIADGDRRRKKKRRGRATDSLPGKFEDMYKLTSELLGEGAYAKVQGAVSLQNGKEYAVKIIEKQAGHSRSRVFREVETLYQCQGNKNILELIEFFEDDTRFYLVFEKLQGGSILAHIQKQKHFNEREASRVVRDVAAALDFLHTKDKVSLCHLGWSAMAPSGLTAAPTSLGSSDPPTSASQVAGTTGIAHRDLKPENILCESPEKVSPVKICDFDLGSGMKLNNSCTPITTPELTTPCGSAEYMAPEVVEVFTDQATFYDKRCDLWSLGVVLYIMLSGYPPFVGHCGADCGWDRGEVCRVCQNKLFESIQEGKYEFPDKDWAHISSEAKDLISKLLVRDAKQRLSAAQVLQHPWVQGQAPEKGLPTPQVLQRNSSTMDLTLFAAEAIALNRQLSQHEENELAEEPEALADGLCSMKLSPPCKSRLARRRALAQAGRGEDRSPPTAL

[1] = tested on: AKT2 (human), P31751 [S474D]; details: ATP 50 µM
ROCK2 (rat) = details: ATP 20 µM, accession and sequence are those of the human protein
NEK6 (human) = NEK6 (human) (UniProt Q9HC98); details: ATP 50 µM
PRKACA (human) = PRKACA (human) (UniProt P17612); details: ATP 20 µM
CaMK1 (human) = CaMK1 (human) (UniProt Q14012); details: ATP 50 µM
CaMK1 (human), sequence (Q14012 whole entry, looked up): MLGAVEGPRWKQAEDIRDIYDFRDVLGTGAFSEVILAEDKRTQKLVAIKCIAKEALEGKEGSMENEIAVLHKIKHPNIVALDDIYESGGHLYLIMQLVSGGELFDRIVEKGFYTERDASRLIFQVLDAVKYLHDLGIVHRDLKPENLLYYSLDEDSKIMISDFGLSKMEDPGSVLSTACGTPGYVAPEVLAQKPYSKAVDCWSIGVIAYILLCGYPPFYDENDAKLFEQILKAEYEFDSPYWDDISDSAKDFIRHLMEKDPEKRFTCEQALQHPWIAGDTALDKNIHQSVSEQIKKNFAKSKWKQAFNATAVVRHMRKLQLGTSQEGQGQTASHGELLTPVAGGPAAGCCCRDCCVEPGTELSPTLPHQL

[2] = target: PRKAA1 PRKAB2 PRKAG1 (human) (UniProt O43741+Q13131+P54619); details: ATP 50 µM
MAPK3 (human) = MAPK3 (human) (UniProt P27361); details: ATP 5 µM
DYRK3 (human) = DYRK3 (human) (UniProt O43781); details: ATP 5 µM
PDPK1 (human) = PDPK1 (human) (UniProt O15530)
CSNK1D (human) = CSNK1D (human) (UniProt P48730); details: ATP 20 µM
CSNK1D (human), sequence (P48730 whole entry, looked up): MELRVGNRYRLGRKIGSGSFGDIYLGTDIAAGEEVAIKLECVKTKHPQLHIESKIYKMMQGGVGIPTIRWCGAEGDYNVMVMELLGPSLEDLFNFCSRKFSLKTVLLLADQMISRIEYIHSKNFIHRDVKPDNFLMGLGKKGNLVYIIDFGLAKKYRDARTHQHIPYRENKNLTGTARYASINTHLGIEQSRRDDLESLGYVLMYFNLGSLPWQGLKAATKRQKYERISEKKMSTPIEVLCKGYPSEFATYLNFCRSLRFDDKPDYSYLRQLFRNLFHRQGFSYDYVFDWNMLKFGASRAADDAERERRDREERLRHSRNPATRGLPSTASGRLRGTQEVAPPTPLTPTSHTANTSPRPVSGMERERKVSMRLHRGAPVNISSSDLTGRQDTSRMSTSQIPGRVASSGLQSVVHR

MAPK1 (human) = MAPK1 (human) (UniProt P28482)
MAPK11 (human) = MAPK11 (human) (UniProt Q15759); details: ATP 20 µM
CDK2 CCNA2 (human) = CDK2 CCNA2 (human) (UniProt P20248+P24941); details: ATP 20 µM
HIPK2 (human) = HIPK2 (human) (UniProt Q9H2X6); details: ATP 5 µM
STK3 (human) = STK3 (human) (UniProt Q13188); details: ATP 20 µM
STK3 (human), sequence (Q13188 whole entry, looked up): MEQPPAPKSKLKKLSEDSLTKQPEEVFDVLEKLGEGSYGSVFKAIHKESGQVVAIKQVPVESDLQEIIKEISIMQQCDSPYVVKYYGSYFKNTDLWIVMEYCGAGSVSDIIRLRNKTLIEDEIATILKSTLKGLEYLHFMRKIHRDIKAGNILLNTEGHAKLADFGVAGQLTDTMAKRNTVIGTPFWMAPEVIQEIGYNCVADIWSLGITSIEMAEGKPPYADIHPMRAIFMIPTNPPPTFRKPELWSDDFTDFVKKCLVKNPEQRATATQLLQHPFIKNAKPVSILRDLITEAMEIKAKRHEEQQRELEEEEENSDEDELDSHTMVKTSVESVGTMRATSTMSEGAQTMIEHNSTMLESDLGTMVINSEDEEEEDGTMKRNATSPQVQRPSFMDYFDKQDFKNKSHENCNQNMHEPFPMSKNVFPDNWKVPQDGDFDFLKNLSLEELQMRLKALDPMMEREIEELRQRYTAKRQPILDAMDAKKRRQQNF

IKBKE (human) = IKBKE (human) (UniProt Q14164); details: ATP 50 µM
PIM1 (human) = PIM1 (human) (UniProt P11309); details: ATP 20 µM
PIM1 (human), sequence (P11309 whole entry, looked up): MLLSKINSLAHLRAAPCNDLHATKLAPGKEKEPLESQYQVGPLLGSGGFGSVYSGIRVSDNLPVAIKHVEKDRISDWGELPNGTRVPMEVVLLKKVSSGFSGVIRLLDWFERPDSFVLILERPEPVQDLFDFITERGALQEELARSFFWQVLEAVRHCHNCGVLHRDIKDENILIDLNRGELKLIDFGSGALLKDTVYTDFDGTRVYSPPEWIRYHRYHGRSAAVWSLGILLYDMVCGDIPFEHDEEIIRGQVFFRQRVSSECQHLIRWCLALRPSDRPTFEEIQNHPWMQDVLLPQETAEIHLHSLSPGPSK

FLT1 (human) = FLT1 (human) (UniProt P17948)
PRKCZ (human) = PRKCZ (human) (UniProt Q05513); details: ATP 5 µM
TBK1 (human) = TBK1 (human) (UniProt Q9UHD2); details: ATP 50 µM
TBK1 (human), sequence (Q9UHD2 whole entry, looked up): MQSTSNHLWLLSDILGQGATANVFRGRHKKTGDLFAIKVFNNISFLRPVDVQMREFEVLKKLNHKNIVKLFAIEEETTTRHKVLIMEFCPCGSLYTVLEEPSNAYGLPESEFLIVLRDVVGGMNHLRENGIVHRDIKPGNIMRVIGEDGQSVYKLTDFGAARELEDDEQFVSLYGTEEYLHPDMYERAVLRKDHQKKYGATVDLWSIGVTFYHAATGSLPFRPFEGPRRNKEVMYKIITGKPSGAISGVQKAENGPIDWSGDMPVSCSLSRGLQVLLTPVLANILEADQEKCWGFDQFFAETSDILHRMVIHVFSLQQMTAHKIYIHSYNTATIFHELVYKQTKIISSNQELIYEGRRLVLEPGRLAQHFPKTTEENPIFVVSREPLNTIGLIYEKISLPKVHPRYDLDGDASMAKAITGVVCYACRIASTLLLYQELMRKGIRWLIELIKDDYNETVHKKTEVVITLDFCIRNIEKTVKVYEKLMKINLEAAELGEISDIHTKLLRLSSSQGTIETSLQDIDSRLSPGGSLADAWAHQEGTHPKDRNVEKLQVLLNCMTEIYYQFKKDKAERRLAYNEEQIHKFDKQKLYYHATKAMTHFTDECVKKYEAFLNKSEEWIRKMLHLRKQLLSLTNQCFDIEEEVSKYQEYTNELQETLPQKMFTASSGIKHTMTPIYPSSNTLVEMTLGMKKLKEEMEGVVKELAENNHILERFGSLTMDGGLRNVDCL

RPS6KA3 KD1 KD2 (human), sequence (P51812 whole entry, looked up): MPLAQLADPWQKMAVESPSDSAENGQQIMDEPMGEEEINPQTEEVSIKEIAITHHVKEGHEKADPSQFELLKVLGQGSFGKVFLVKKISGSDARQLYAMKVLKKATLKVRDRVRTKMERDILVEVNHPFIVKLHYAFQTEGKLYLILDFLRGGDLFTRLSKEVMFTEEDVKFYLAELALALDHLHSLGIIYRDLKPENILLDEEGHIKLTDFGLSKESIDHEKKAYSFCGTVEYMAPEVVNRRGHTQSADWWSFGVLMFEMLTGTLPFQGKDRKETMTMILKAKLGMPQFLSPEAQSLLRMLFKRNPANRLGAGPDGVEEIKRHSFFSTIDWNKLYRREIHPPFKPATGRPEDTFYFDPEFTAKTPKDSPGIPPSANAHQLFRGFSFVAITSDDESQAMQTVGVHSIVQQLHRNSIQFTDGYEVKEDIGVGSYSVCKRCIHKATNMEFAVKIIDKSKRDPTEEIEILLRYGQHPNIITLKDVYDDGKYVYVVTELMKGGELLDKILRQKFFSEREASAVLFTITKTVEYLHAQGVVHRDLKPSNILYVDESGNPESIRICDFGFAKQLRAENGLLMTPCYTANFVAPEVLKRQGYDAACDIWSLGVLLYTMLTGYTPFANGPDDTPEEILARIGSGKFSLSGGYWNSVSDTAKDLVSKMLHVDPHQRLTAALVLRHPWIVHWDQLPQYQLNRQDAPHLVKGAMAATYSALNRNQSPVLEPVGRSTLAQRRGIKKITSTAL
MAPK8 (human), sequence (P45983 whole entry, looked up): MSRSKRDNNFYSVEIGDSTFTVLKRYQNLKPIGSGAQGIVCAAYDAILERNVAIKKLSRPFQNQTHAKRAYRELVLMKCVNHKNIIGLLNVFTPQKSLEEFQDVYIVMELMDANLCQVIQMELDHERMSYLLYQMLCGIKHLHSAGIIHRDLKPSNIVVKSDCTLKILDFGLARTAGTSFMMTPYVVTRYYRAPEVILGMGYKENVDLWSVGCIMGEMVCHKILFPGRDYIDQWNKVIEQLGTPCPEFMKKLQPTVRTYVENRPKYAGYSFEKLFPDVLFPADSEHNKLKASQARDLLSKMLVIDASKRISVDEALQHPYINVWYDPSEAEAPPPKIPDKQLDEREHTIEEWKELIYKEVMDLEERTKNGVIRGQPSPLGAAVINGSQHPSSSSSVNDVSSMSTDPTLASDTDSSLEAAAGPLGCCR
MST4 (human), sequence (Q9P289 whole entry, looked up): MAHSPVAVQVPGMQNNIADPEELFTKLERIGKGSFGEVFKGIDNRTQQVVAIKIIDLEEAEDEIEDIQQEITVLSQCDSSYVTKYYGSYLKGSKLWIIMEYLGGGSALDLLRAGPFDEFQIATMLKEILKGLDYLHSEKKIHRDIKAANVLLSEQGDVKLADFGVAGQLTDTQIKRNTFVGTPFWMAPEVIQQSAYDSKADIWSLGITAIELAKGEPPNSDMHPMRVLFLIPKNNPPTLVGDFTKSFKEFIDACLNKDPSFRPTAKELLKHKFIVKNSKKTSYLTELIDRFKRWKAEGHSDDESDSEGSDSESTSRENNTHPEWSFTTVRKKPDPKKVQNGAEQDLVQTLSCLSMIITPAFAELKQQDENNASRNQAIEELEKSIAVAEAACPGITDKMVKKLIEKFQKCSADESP

residual activity (MST4 (human); compound 0.1 µM): 87% | residual activity (MST4 (human); compound 1.0 µM): 77% | residual activity (MST4 (human); compound 10.0 µM): 46% | IC50 (RPS6KA3 KD1 KD2 (human)): 9.2 µM | residual activity (RPS6KA3 KD1 KD2 (human); compound 0.1 µM): 100% | residual activity (RPS6KA3 KD1 KD2 (human); compound 1.0 µM): 86% | residual activity (RPS6KA3 KD1 KD2 (human); compound 10.0 µM): 45% | residual activity (PIM3 (human); compound 0.1 µM): 93% | residual activity (PIM3 (human); compound 1.0 µM): 88% | residual activity (PIM3 (human); compound 10.0 µM): 83% | residual activity (MAPK8 (human); compound 0.1 µM): 111% | residual activity (MAPK8 (human); compound 1.0 µM): 107% | residual activity (MAPK8 (human); compound 10.0 µM): 95% | residual activity (EPHA2 (human); compound 0.1 µM): 95% | residual activity (EPHA2 (human); compound 1.0 µM): 86% | residual activity (EPHA2 (human); compound 10.0 µM): 89% | residual activity (BTK (human); compound 0.1 µM): 83% | residual activity (BTK (human); compound 1.0 µM): 87% | residual activity (BTK (human); compound 10.0 µM): 92% | residual activity (MKNK1 (human); compound 0.1 µM): 101% | residual activity (MKNK1 (human); compound 1.0 µM): 91% | residual activity (MKNK1 (human); compound 10.0 µM): 79% | residual activity ([1]; compound 0.1 µM): 74% | residual activity ([1]; compound 1.0 µM): 73% | residual activity ([1]; compound 10.0 µM): 60% | residual activity (ROCK2 (rat); compound 0.1 µM): 98% | residual activity (ROCK2 (rat); compound 1.0 µM): 91% | residual activity (ROCK2 (rat); compound 10.0 µM): 58% | residual activity (NEK6 (human); compound 0.1 µM): 88% | residual activity (NEK6 (human); compound 1.0 µM): 75% | residual activity (NEK6 (human); compound 10.0 µM): 80% | residual activity (PRKACA (human); compound 0.1 µM): 84% | residual activity (PRKACA (human); compound 1.0 µM): 83% | residual activity (PRKACA (human); compound 10.0 µM): 34% | residual activity (CaMK1 (human); compound 0.1 µM): 106% | residual activity (CaMK1 (human); compound 1.0 µM): 94% | residual activity (CaMK1 (human); compound 10.0 µM): 78% | residual activity ([2]; compound 0.1 µM): 100% | residual activity ([2]; compound 1.0 µM): 88% | residual activity ([2]; compound 10.0 µM): 46% | residual activity (MAPK3 (human); compound 0.1 µM): 93% | residual activity (MAPK3 (human); compound 1.0 µM): 85% | residual activity (MAPK3 (human); compound 10.0 µM): 83% | residual activity (DYRK3 (human); compound 0.1 µM): 106% | residual activity (DYRK3 (human); compound 1.0 µM): 92% | residual activity (DYRK3 (human); compound 10.0 µM): 83% | residual activity (PDPK1 (human); compound 0.1 µM, ATP 20 µM): 90% | residual activity (PDPK1 (human); compound 0.1 µM, ATP 50 µM): 94% | residual activity (PDPK1 (human); compound 1.0 µM, ATP 20 µM): 86% | residual activity (PDPK1 (human); compound 1.0 µM, ATP 50 µM): 83% | residual activity (PDPK1 (human); compound 10.0 µM, ATP 20 µM): 95% | residual activity (PDPK1 (human); compound 10.0 µM, ATP 50 µM): 67% | residual activity (CSNK1D (human); compound 0.1 µM): 96% | residual activity (CSNK1D (human); compound 1.0 µM): 93% | residual activity (CSNK1D (human); compound 10.0 µM): 71% | residual activity (MAPK1 (human); compound 0.1 µM, ATP 5 µM): 88% | residual activity (MAPK1 (human); compound 0.1 µM, ATP 50 µM): 93% | residual activity (MAPK1 (human); compound 1.0 µM, ATP 5 µM): 96% | residual activity (MAPK1 (human); compound 1.0 µM, ATP 50 µM): 85% | residual activity (MAPK1 (human); compound 10.0 µM, ATP 5 µM): 77% | residual activity (MAPK1 (human); compound 10.0 µM, ATP 50 µM): 86% | residual activity (MAPK11 (human); compound 0.1 µM): 88% | residual activity (MAPK11 (human); compound 1.0 µM): 89% | residual activity (MAPK11 (human); compound 10.0 µM): 97% | residual activity (CDK2 CCNA2 (human); compound 0.1 µM): 102% | residual activity (CDK2 CCNA2 (human); compound 1.0 µM): 101% | residual activity (CDK2 CCNA2 (human); compound 10.0 µM): 88% | residual activity (HIPK2 (human); compound 0.1 µM): 108% | residual activity (HIPK2 (human); compound 1.0 µM): 86% | residual activity (HIPK2 (human); compound 10.0 µM): 88% | residual activity (STK3 (human); compound 0.1 µM): 95% | residual activity (STK3 (human); compound 1.0 µM): 85% | residual activity (STK3 (human); compound 10.0 µM): 77% | residual activity (IKBKE (human); compound 0.1 µM): 103% | residual activity (IKBKE (human); compound 1.0 µM): 99% | residual activity (IKBKE (human); compound 10.0 µM): 96% | residual activity (PIM1 (human); compound 0.1 µM): 88% | residual activity (PIM1 (human); compound 1.0 µM): 90% | residual activity (PIM1 (human); compound 10.0 µM): 78% | residual activity (FLT1 (human); compound 0.1 µM, ATP 20 µM): 97% | residual activity (FLT1 (human); compound 0.1 µM, ATP 100 µM): 100% | residual activity (FLT1 (human); compound 1.0 µM, ATP 20 µM): 83% | residual activity (FLT1 (human); compound 1.0 µM, ATP 100 µM): 65% | residual activity (FLT1 (human); compound 10.0 µM, ATP 20 µM): 37% | residual activity (FLT1 (human); compound 10.0 µM, ATP 100 µM): 55% | residual activity (PRKCZ (human); compound 0.1 µM): 78% | residual activity (PRKCZ (human); compound 1.0 µM): 75% | residual activity (PRKCZ (human); compound 10.0 µM): 70% | residual activity (TBK1 (human); compound 0.1 µM): 100% | residual activity (TBK1 (human); compound 1.0 µM): 89% | residual activity (TBK1 (human); compound 10.0 µM): 93%
SMILES: CCc1cncnc1N1CCN(Cc2nc3cc(C(F)(F)F)ccc3[nH]2)CC1
